Reference: ChEMBL document CHEMBL1126454, “Syntheses of new TXA2/PGH2-receptor antagonists and their biological properties” (Bioorg Med Chem Lett, 1992)

Columns and labels:
[1] = target: T1, Thromboxane A2 receptor (Homo sapiens) (UniProt P21731); assay: Competition factor for Thromboxane A2 (TXA2) / Prostaglandin H2 (PGH2)-receptor was determined by CF=(ID50-test)/(ID50-standard); not parallel
T1 sequence (whole entry): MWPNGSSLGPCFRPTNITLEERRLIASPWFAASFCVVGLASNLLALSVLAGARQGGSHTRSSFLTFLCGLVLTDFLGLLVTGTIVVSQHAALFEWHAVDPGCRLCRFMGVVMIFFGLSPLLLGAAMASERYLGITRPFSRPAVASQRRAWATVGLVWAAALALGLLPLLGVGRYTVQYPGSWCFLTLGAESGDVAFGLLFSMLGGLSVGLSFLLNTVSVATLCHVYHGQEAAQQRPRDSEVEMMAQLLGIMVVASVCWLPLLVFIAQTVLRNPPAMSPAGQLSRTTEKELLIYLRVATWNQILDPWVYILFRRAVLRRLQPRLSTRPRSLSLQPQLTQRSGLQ

[2] = target: T1, Thromboxane A2 receptor (Homo sapiens); assay: Competition factor for Thromboxane A2 (TXA2) / Prostaglandin H2 (PGH2)-receptor was determined by CF=(ID50-test)/(ID50-standard)
[3] = target: T1, Thromboxane A2 receptor (Homo sapiens); assay: Competition factor for Thromboxane A2 (TXA2) / Prostaglandin H2 (PGH2)-receptor was determined by CF=(ID50-test)/(ID50-standard); agonist; type: functional
[4] = target: T1, Thromboxane A2 receptor (Homo sapiens); assay: Competition factor for Thromboxane A2 (TXA2) / Prostaglandin H2 (PGH2)-receptor was determined by CF=(ID50-test)/(ID50-standard); partial agonist; type: functional
[5] = target: T1, Thromboxane A2 receptor (Homo sapiens); assay: Competition factor for Thromboxane A2 (TXA2) / Prostaglandin H2 (PGH2)-receptor was determined by CF=(ID50-test)/(ID50-standard); antagonist; type: functional

Row | SMILES | CF [2] | other results
1 | O=C(O)CC/C=C\C[C@H]1[C@H](CNS(=O)(=O)c2ccc(Cl)cc2)C2CC1(c1ccc(-c3ccccc3)cc1)CO2 (some centres not stated) |  | CF [1]: 0.1
2 | O=C(O)CCC/C=C/C[C@H]1C2COC(C2)[C@@H]1COCc1ccccc1 (some centres not stated) | > 1000 | 
3 | Cc1ccc(S(=O)(=O)NC[C@@H]2C3CC(c4ccc(-c5ccccc5)cc4)(CO3)[C@H]2CC=CCCCC(=O)O)cc1 (some centres not stated) |  | CF [1]: 4
4 | O=C(O)CCCCCC[C@H]1[C@H](CNS(=O)(=O)c2ccc(Cl)cc2)C2CC1(c1ccc(-c3ccccc3)cc1)CO2 (some centres not stated) | 1.4 | 
5 | Cc1ccc(S(=O)(=O)N[C@@H]2C3CC(c4cccc(F)c4)(CO3)[C@H]2C/C=C/CCCC(=O)O)cc1 (some centres not stated) | 120 | 
6 | O=C(O)CCC/C=C\C[C@H]1[C@H](CNS(=O)(=O)c2ccc(Cl)c(Cl)c2)C2CC1(c1ccc(-c3ccccc3)cc1)CO2 (some centres not stated) |  | CF [1]: 4.2
7 | CCCCC[C@H](O)/C=C/[C@H]1C2CC(C)(CO2)[C@@H]1C/C=C/CCCC(=O)O (some centres not stated) |  | CF [3]: 320
8 | CCCC#CC12COC(C1)[C@H](COCc1ccccc1)[C@H]2C/C=C/CCCC(=O)O (some centres not stated) | 90 | 
9 | CCCCC[C@H](O)/C=C/[C@H]1C2CC(CCc3ccccc3)(CO2)[C@@H]1C/C=C/CCCC(=O)O (some centres not stated) | 420 | 
10 | CCCCC[C@H](O)/C=C/[C@H]1C2CC(Cc3ccccc3)(CO2)[C@@H]1C/C=C/CCCC(=O)O (some centres not stated) | 250 | 
11 | O=C(O)CCCCC[C@H]1[C@H](CNS(=O)(=O)c2ccc(Cl)c(Cl)c2)C2CC1(c1ccc(-c3ccccc3)cc1)CO2 (some centres not stated) | 5 | CF [1]: 6
12 | O=C(O)CCCCCC[C@H]1[C@H](CNS(=O)(=O)c2ccc(Cl)c(Cl)c2)C2CC1(c1ccc(-c3ccccc3)cc1)CO2 (some centres not stated) | 12 | 
13 | Cc1ccc(S(=O)(=O)NC[C@@H]2C3CC(c4ccc(-c5ccccc5)cc4)(CO3)[C@H]2CCCCCC(=O)O)cc1 (some centres not stated) | 0.1 | 
14 | Cc1ccc(S(=O)(=O)NC[C@@H]2C3CC(c4ccc(-c5ccccc5)cc4)(CO3)[C@H]2C/C=C\CCC(=O)O)cc1 (some centres not stated) | 0.05 | 
15 | Cc1ccc(S(=O)(=O)N[C@@H]2C3CC(c4ccc(-c5ccccc5)cc4)(CO3)[C@H]2C/C=C/CCCC(=O)O)cc1 (some centres not stated) | 2 | 
16 | CCC#CC[C@H](C)[C@H](O)/C=C/[C@@H]1C2CC(c3ccc(-c4ccccc4)cc3)(CO2)[C@H]1C/C=C/CCCC(=O)O (some centres not stated) |  | CF [4]: 20
17 | O=C(O)CCCCC[C@H]1[C@H](CNS(=O)(=O)c2ccc(Cl)cc2)C2CC1(c1ccc(-c3ccccc3)cc1)CO2 (some centres not stated) |  | CF [1]: 0.3
18 | CCCCC[C@H](O)/C=C/[C@H]1C2CC(CO2)[C@@H]1CC=CCCCC(=O)O (some centres not stated) |  | CF [3]: 36
19 | CCC#CC[C@H](C)[C@H](O)C#C[C@@H]1C2CC(c3ccc(-c4ccccc4)cc3)(CO2)[C@H]1C/C=C/CCCC(=O)O (some centres not stated) |  | CF [4]: 12
20 | O=C(O)CCC/C=C\C[C@H]1[C@H](CNS(=O)(=O)c2ccc(Cl)cc2)C2CC1(c1ccc(-c3ccccc3)cc1)CO2 (some centres not stated) |  | CF [1]: 0.4
21 | O=C(O)CCCCC[C@H]1[C@H](CNS(=O)(=O)c2ccc(F)cc2)C2CC1(c1ccc(-c3ccccc3)cc1)CO2 (some centres not stated) | 0.1 | 
22 | O=C(O)CCC/C=C/C[C@@H]1[C@@H](COCc2ccccc2)C2CC1(CCc1ccccc1)CO2 (some centres not stated) |  | CF [3]: 750
23 | O=C(O)CCC/C=C/C[C@H]1[C@H](/C=C/[C@@H](O)COc2ccc(F)cc2)C2CC1(c1ccc(F)cc1)CO2 (some centres not stated) |  | CF [4]: 2
24 | N#Cc1ccc(COC[C@@H]2C3CC(c4ccc(F)cc4)(CO3)[C@H]2C/C=C/CCCC(=O)O)cc1 (some centres not stated) |  | CF [4]: 6

Second part, led by results:

Row | CF [2] | SMILES | other results
25 | 120 | O=C(O)CCC/C=C/C[C@H]1[C@H](NS(=O)(=O)c2ccc(F)cc2)C2CC1(c1ccc(F)cc1)CO2 (some centres not stated) | 
26 | > 1000 | CC12COC(C1)[C@H](COCc1ccccc1)[C@H]2C/C=C/CCCC(=O)O (some centres not stated) | 
27 | 12 | O=C(O)CCC/C=C/C[C@H]1[C@H](COCc2ccccc2)C2CC1(C#Cc1ccccc1)CO2 (some centres not stated) | 
28 | 250 | O=C(O)CCC/C=C/C[C@H]1[C@H](NS(=O)(=O)c2ccc(F)cc2)C2CC1(c1cccc(F)c1)CO2 (some centres not stated) | 
29 | 650 | CCCCC[C@H](O)/C=C/[C@H]1C2CC(c3ccc(F)cc3)(CO2)[C@@H]1C/C=C/CCCC(=O)O (some centres not stated) | 
30 | 300 | O=C(O)CCC/C=C/C[C@@H]1[C@@H](COCc2ccccc2)C2CC1(Cc1ccccc1)CO2 (some centres not stated) | 
31 | 16 | O=C(O)CCC/C=C/C[C@H]1[C@H](/C=N/Oc2ccc(F)cc2)C2CC1(c1ccc(F)cc1)CO2 (some centres not stated) | 
32 | 30 | O=C(O)CCC/C=C/C[C@@H]1[C@@H](COCc2ccccc2)C2CC1(C#Cc1ccccc1)CO2 (stereo in doubt) | 
33 | 375 | O=C(O)CCC/C=C/C[C@@H]1[C@@H](/C=C/[C@@H](O)COc2ccc(F)cc2)C2CC1(c1ccc(F)cc1)CO2 (some centres not stated) | 
34 | 30 | O=C(O)CCC/C=C/C[C@@H]1[C@@H](COCc2ccccc2)C2CC1(C#Cc1ccccc1)CO2 (stereo in doubt; 8a) | 
35 | 170 | Cc1ccc(S(=O)(=O)N[C@@H]2C3CC(c4ccc(F)cc4)(CO3)[C@H]2C/C=C/CCCC(=O)O)cc1 (some centres not stated) | 
36 | 30 | O=C(O)CCC/C=C/C[C@H]1[C@H](NS(=O)(=O)c2ccc(F)cc2)C2CC1(c1ccc(O)cc1)CO2 (some centres not stated) | 
37 | 60 | O=C(O)CCC/C=C/C[C@H]1[C@H](COCc2ccccc2)C2CC1(c1ccccc1)CO2 (some centres not stated) | 
38 | 60 | O=C(O)CCC/C=C/C[C@H]1[C@H](COCc2ccccc2)C2CC1(c1ccc(F)cc1)CO2 (some centres not stated) | 
39 | 16 | O=C(O)CCC/C=C/C[C@H]1[C@H](/C=N/Oc2ccc(F)cc2)C2CC1(c1ccc(-c3ccccc3)cc1)CO2 (some centres not stated) | 
40 | 125 | O=C(O)CCC/C=C/C[C@@H]1[C@@H](COCc2ccccc2)C2CC1(c1ccc(F)cc1)CO2 (some centres not stated) | 
41 | 0.05 | O=C(O)CC/C=C\C[C@H]1[C@H](CNS(=O)(=O)c2ccc(F)cc2)C2CC1(c1ccc(-c3ccccc3)cc1)CO2 (some centres not stated) | 
42 | 520 | Cc1ccc(S(=O)(=O)N[C@@H]2C3CC(c4ccc(O)cc4)(CO3)[C@H]2C/C=C/CCCC(=O)O)cc1 (some centres not stated) | 
43 | 900 | N#Cc1ccc(COC[C@H]2C3CC(c4ccc(F)cc4)(CO3)[C@@H]2C/C=C/CCCC(=O)O)cc1 (some centres not stated) | 
44 | 26 | CCC#CC[C@H](C)[C@H](O)/C=C/[C@@H]1C2CC(c3ccc(F)cc3)(CO2)[C@H]1C/C=C/CCCC(=O)O (some centres not stated) | 
45 | 4 | CCC#CC[C@H](C)[C@H](O)C#C[C@@H]1C2CC(c3ccc(F)cc3)(CO2)[C@H]1C/C=C/CCCC(=O)O (some centres not stated) | 
46 | 2 | O=C(O)CCC/C=C/C[C@H]1[C@H](NS(=O)(=O)c2ccc(F)cc2)C2CC1(c1ccc(-c3ccccc3)cc1)CO2 (some centres not stated) | 
47 | 800 | O=C(O)CCC/C=C/C[C@@H]1[C@@H](COCc2ccccc2)C2CC1(Cc1ccc(-c3ccccc3)cc1)CO2 (some centres not stated) | 
48 | 300 | O=C(O)CCC/C=C/C[C@@H]1[C@@H](COCc2ccccc2)C2CC1(c1ccccc1)CO2 (some centres not stated) | CF [5]: 300
49 | 25 | CCCCC[C@H](O)/C=C/[C@@H]1C2CC(c3ccc(F)cc3)(CO2)[C@H]1C/C=C/CCCC(=O)O (some centres not stated) | 
50 | 10 | O=C(O)CCC/C=C/C[C@H]1[C@H](/C=N/Oc2ccc(F)cc2)C2CC1(c1cccc(F)c1)CO2 (some centres not stated) | 
